Measurements: patent US9309242B2, “Substituted pyrido[2,3-b]pyrazines as FGFR kinase inhibitors” (priority 2011, dated 2016)

What was measured:
FGFR1 (h) = FGFR1 (h) (Homo sapiens, UniProt P11362); test: FGFR1 (enzymatic assay), TR-FRET; format: biochemical; settings: read-out: FGFR 1 pIC50 (converted)
FGFR3 (h) = FGFR3 (h) (Homo sapiens, UniProt P22607); test: FGFR3 (enzymatic assay), TR-FRET; format: biochemical; settings: read-out: FGFR 3 pIC50 (converted)
Source text: Time-Resolved Fluorescence Resonance Energy Transfer (TR-FRET) signal (ex340 nm.

KDR (h) = KDR (h) (Homo sapiens, UniProt P35968); test: KDR (VEGFR2) (enzymatic assay), TR-FRET; format: biochemical; settings: read-out: VEGFR 2 (KDR) pIC50 (converted)
Procedure, shortened: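 Low-ATP (3 μM) TR-FRET kinase assay using 500 nM Btn-Flt3 peptide and 150 ng/ml enzyme, run 2 h at room temperature with 6 mM MnCl2 and 0.1 mM Na3VO4. Signal from Eu-anti-P-Tyr/SA-XL-665 is recorded in RFU.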

[1] = target: T1, Ba/F3-FGFR3-transfected cells (Homo sapiens, UniProt P22607); test: Ba/F3-FGFR3 (minus IL3) cellular proliferation assay, Alamar Blue; format: cell-based
T1 construct: BAF3-FGFR3 (MIN IL3) pIC50; other: minus IL3
Procedure, shortened: (§1)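 Ba/F3 cells transfected with FGFR3, 20000/well in phenol red-free RPMI-1640 with 10% FBS, exposed to compound for 24 h at 37 °C, 5% CO2. Alamar Blue (resazurin) added for 4 h more; fluorescence read at ex 540/em 590 nm. Counterscreen run the same way with 10 ng/ml murine IL3.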

[2] = system: Ba/F3-FGFR3-transfected cells; test: Ba/F3-FGFR3 (plus IL3) cellular proliferation assay, counterscreen with 10 ng/ml murine IL3; format: cell-based; settings: plus IL3 (10 ng/ml murine IL3, counterscreen); read-out: BAF3-FGFR3 (PLUS IL3) pIC50 (converted)
Procedure, shortened: as §1

[3] = target: T2, Ba/F3-KDR-transfected cells (Homo sapiens, UniProt P35968); test: Ba/F3-KDR (minus IL3) cellular proliferation assay, Alamar Blue; format: cell-based
T2 construct: BAF3-KDR (MIN IL3) pIC50; other: minus IL3
Procedure, shortened: (§2)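 Cells grown with test compound at 37° C and 5% CO2 for 24 hours were given a resazurin/ferricyanide/ferrocyanide reagent for 4 hours before fluorescence (540/590 nm) was recorded.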

[4] = system: Ba/F3-KDR-transfected cells; test: Ba/F3-KDR (plus IL3) cellular proliferation assay, counterscreen with 10 ng/ml murine IL3; format: cell-based; settings: plus IL3 (10 ng/ml murine IL3, counterscreen); read-out: BAF3-KDR (PLUS IL3) pIC50 (converted)
Procedure, shortened: as §2

[5] = target: Ba/F3-FGFR4-transfected cells (Homo sapiens, UniProt P22455); test: Ba/F3-FGFR4 cellular proliferation assay, Alamar Blue; format: cell-based
Procedure, shortened: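 Here, cells seeded at 20000 per well were treated 24 hours with compound, then given a 4-hour Alamar Blue incubation at 37° C before RFU measurement at ex. 540 nm and em. 590 nm.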

Sequence of KDR (h) (P35968 20-1356): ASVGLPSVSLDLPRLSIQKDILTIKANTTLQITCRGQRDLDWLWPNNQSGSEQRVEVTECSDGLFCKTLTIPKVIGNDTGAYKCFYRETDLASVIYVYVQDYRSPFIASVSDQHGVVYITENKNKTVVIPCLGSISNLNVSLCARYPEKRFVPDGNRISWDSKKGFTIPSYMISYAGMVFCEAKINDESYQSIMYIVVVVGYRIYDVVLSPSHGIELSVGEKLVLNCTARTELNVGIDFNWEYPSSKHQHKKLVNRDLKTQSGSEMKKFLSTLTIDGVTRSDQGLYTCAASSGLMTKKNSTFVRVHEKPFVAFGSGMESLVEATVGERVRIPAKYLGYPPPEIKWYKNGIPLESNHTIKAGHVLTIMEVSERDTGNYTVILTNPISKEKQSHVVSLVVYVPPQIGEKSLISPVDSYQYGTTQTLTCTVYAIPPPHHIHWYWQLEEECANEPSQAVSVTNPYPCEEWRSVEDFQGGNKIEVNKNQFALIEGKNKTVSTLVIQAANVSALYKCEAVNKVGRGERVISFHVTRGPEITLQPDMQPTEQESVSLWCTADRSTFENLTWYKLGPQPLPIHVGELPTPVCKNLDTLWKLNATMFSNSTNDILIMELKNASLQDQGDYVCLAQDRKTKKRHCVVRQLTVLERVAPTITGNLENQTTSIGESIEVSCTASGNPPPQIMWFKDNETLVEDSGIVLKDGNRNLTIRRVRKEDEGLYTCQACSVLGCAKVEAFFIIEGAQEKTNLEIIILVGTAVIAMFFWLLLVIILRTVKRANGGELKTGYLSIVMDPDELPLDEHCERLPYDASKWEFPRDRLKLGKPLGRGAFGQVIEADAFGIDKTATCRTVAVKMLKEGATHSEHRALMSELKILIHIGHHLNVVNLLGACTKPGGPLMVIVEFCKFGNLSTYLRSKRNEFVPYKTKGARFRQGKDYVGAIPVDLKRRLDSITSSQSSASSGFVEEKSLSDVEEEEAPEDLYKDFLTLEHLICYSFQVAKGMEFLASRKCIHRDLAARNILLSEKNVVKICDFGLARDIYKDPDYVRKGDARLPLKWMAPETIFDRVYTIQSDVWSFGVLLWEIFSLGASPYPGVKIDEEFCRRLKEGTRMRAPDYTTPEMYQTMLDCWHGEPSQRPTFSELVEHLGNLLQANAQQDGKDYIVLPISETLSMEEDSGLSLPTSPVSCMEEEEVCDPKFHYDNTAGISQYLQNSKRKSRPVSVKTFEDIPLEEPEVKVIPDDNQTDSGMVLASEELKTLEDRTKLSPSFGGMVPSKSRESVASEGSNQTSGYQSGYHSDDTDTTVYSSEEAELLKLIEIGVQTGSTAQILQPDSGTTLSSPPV
Sequence of FGFR3 (h) (P22607 23-806): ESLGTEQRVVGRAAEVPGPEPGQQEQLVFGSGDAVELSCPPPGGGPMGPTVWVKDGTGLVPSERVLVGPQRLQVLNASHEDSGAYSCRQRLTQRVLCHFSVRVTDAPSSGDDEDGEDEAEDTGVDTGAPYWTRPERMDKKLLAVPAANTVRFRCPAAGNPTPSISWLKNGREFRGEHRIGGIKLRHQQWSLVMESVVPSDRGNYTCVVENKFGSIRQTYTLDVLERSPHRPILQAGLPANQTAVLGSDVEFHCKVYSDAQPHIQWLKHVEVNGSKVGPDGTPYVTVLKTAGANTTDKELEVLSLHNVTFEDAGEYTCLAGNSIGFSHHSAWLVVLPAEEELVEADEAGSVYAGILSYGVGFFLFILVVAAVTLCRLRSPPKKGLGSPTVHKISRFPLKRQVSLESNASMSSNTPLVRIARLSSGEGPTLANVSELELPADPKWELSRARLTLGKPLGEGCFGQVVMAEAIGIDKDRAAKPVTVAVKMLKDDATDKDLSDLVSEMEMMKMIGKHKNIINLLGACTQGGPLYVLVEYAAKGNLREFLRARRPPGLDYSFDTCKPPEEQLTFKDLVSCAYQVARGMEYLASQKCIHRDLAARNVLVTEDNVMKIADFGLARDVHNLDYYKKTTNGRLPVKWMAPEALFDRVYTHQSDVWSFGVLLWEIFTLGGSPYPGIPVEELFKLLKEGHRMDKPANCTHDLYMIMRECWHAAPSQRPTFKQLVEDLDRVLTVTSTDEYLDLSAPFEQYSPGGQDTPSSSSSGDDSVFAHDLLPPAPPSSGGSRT
Sequence of Ba/F3-FGFR4-transfected cells (P22455 whole entry, change not shown): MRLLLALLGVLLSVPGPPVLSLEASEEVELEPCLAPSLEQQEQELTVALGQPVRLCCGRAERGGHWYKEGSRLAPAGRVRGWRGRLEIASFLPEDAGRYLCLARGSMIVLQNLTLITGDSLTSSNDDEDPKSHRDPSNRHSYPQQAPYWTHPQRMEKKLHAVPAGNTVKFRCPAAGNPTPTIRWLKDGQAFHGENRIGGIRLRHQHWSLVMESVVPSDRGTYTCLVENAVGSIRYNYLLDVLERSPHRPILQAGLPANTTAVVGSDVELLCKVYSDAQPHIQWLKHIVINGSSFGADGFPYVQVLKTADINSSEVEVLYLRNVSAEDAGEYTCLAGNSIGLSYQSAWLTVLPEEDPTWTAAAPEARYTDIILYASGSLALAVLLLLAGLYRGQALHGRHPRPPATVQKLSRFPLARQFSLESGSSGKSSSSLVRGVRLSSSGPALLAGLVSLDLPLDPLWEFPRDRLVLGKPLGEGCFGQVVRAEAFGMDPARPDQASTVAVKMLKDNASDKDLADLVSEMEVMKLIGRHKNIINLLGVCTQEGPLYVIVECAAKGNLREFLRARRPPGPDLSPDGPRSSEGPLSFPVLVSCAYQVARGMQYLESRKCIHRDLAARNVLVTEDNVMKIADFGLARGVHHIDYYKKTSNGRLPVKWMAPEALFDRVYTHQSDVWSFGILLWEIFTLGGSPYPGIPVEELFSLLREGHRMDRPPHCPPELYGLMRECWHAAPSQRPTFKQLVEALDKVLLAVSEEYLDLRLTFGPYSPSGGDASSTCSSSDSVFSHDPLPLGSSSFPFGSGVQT
Sequence of FGFR1 (h) (P11362 22-822): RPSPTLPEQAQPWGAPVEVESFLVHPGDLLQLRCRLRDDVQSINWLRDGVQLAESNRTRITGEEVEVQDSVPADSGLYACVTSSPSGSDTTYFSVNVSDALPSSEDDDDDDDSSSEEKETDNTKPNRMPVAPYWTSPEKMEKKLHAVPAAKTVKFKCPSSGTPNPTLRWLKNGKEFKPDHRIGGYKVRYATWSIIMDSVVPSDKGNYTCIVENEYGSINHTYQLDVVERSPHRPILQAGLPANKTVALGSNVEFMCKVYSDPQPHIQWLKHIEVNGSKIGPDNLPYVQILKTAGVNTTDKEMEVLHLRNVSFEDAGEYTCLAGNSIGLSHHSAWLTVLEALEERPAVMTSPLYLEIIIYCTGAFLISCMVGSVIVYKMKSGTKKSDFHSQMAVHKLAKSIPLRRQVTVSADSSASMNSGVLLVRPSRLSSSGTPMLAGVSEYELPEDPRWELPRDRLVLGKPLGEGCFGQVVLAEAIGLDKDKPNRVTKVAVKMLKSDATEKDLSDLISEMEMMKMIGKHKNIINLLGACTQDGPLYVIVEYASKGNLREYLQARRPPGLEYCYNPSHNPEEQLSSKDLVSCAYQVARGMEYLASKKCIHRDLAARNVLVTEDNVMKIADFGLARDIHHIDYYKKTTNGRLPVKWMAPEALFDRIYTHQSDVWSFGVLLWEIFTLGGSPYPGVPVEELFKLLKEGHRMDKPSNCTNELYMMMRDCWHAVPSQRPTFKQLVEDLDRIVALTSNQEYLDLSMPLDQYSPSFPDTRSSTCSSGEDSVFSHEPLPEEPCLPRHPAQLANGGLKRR
T2 sequence (P35968 whole entry, change not shown): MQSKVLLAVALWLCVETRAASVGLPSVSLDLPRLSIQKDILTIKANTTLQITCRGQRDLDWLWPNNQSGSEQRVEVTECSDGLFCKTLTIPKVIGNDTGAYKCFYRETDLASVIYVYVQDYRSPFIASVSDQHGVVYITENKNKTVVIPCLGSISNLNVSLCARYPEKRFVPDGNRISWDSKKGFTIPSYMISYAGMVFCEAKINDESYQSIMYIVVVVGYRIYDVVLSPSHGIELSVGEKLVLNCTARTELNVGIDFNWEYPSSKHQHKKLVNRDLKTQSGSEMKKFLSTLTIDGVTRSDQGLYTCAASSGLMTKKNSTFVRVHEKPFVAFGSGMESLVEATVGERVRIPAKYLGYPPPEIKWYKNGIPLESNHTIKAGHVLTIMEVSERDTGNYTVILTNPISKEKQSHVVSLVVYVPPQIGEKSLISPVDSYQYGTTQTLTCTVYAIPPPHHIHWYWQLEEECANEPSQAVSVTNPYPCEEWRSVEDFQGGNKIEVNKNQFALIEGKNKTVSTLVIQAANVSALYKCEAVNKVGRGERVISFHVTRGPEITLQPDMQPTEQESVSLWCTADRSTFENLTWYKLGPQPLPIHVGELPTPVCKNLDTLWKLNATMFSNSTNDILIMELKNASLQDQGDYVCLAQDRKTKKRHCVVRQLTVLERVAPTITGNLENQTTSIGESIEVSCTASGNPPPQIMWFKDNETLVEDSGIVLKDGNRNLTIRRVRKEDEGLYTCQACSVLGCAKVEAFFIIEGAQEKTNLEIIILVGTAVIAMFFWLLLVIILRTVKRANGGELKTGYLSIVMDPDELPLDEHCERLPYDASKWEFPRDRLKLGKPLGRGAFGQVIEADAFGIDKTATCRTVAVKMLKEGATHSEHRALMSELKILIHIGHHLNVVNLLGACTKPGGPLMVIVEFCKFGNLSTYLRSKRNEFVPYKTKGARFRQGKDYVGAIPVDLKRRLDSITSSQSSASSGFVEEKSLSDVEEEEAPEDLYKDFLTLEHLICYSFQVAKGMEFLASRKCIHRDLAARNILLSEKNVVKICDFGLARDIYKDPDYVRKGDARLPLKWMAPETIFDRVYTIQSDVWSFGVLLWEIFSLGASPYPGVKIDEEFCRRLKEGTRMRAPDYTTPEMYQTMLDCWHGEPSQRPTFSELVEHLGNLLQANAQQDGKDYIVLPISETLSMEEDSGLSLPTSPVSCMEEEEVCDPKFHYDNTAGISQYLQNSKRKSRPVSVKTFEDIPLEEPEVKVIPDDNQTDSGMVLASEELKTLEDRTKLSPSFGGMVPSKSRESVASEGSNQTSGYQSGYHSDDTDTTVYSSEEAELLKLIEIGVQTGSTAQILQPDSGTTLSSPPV

| SMILES | IC50 (FGFR1 (h)) [nM] | IC50 (FGFR3 (h)) [nM] | IC50 (KDR (h)) [nM] | BAF3-FGFR3 (MIN IL3) pIC50 [1] | IC50 [2] [nM] | BAF3-KDR (MIN IL3) pIC50 [3] | IC50 [4] [nM] | BAF3-FGFR4 pIC50 [5] |
| --- | --- | --- | --- | --- | --- | --- | --- | --- |
| COCC(O)Cn1/c(=N/c2cc(OC)cc(OC)c2F)ccc2ncc(-c3cnn(C)c3)nc21 (single isomer, unassigned) [Compound 60] | 0.741 | 0.525 | 8.91 | 8.15 | > 10000 | 6.58 | > 10000 | 7.76 |
| COc1cc(OC)c(F)c(N(CC(O)COC(C)C)c2ccc3ncc(-c4cnn(CC(O)COC(C)C)c4)nc3n2)c1 (single isomer, unassigned) [Compound 252] | 1.95 | 4.07 | 49 | 7.42 | > 10000 | 5.67 | > 10000 | 6.95 |
| COc1cc(OC)c(F)c(N(C)c2ccc3ncc(-c4cnn(C)c4)nc3n2)c1F (single isomer, unassigned) [Compound 254] | 0.468 | 0.437 | 14.1 | 8.08 | > 10000 | 5.98 | > 10000 | 7.15 |
| COc1cc(OC)c(F)c(/N=c2\ccc3ncc(-c4cnn(C)c4)nc3n2C)c1F (single isomer, unassigned) [Compound 255] | 0.214 | 0.363 | 3.09 | 8.38 | > 10000 | 6.22 | > 10000 | 7.34 |
| COc1cc(OC)c(F)c(/N=c2\ccc3ncc(-c4cnn(C)c4)nc3n2CC2CC2)c1F (single isomer, unassigned) [Compound 267] | 0.977 | 2.4 | 12.6 | 8.16 | > 10000 | 6.37 | > 10000 | 7.55 |
| COc1cc(OC)c(F)c(N(CC2CC2)c2ccc3ncc(-c4cnn(C)c4)nc3n2)c1F (single isomer, unassigned) [Compound 268] | 0.912 | 1.86 | 12 | 7.74 | > 10000 | 5.55 | > 10000 | 6.90 |
| COc1cc(OC)c(F)c(N(CC(O)c2cnn(C)c2)c2ccc3ncc(-c4cnn(C)c4)nc3n2)c1 (stereo not shown) [Compound 244] | 5.89 | 4.07 | 129 | 6.73 | > 10000 | 5.03 | > 10000 | 6.11 |
| COc1cc(OC)c(F)c(N(CC(C)(C)O)c2ccc3ncc(-c4cnn(C)c4)nc3n2)c1 [Compound 245] | 3.63 | 3.31 | 60.3 | 7.07 | > 10000 | 5.33 | > 10000 | 6.34 |
| COc1cc(/N=c2\ccc3ncc(-c4cnn(C)c4)nc3n2CC(C)(C)O)c(F)c(OC)c1 [Compound 246] | 0.603 | 0.794 | 7.59 | 7.53 | > 10000 | 5.83 | > 10000 | 6.71 |
| COc1cc(/N=c2\ccc3ncc(-c4cnn(C)c4)nc3n2CC2CCC(=O)N2CCO)c(F)c(OC)c1 (stereo not shown) [Compound 247] | 0.603 | 1.32 | 12 | ~7.7 | > 10000 | 5.63 | > 10000 | 6.87 |
| COc1cc(OC)c(F)c(N(CC(=O)NC(C)C)c2ccc3ncc(-c4cnn(C)c4)nc3n2)c1 [Compound 249] | 3.89 | 7.59 | 224 | 6.83 | > 10000 | 5.09 | > 10000 | 6.00 |
| COc1cc(OC)cc(N(CC(O)COC(C)C)c2ccc3ncc(-c4cnn(CC(O)COC(C)C)c4)nc3n2)c1 (stereo not shown) [Compound 250] | 4.17 | 4.79 | 120 | ~7.09 | > 10000 | 5.16 | > 10000 | 6.37 |
| COc1cc(OC)cc(N(Cc2c[nH]nn2)c2ccc3ncc(-c4cnn(C)c4)nc3n2)c1 [Compound 251] | 1.32 | 0.661 | 26.3 | ~7.6 | > 10000 | 5.53 | > 10000 | 6.57 |
| COc1cc(OC)c(F)c(N(Cc2ncc[nH]2)c2ccc3ncc(-c4cnn(C5COC5)c4)nc3n2)c1 [Compound 253] | 0.603 | 1.35 | 12 | ~8.63 | > 10000 | 6.32 | > 10000 | 7.90 |
| CCn1/c(=N/c2c(F)c(OC)cc(OC)c2F)ccc2ncc(-c3cnn(C)c3)nc21 [Compound 257] | 0.331 | 0.692 | 3.16 | ~8.66 | > 10000 | 6.80 | > 10000 | 7.98 |
| COc1cc(OC)c(F)c(N(Cc2c[nH]nn2)c2ccc3ncc(-c4cnn(C)c4)nc3n2)c1 [Compound 258] | 0.55 | 0.676 | 12.3 | 7.91 | > 10000 | 6.02 | > 10000 | 7.03 |
| COc1cc(OC)c(F)c(N(Cc2ncc[nH]2)c2ccc3ncc(N4C[C@@H](C)N[C@@H](C)C4)nc3n2)c1 [Compound 259] | 2.09 | 4.57 | 309 | 7.18 | > 10000 | 5.13 | > 10000 | 6.19 |
| CNC(=O)c1cc(F)cc(N(Cc2ncc[nH]2)c2ccc3ncc(-c4cnn(C)c4)nc3n2)c1 [Compound 261] | 1.48 | 1.91 | 10.2 | ~7.74 | > 10000 | 6.01 | > 10000 | 6.77 |
| COc1cc(OC)c(F)c(N(CC(=O)N2CCNCC2)c2ccc3ncc(-c4cnn(C)c4)nc3n2)c1 [Compound 262] | 7.24 | 17.4 | 240 | ~6.17 | > 10000 | 5.06 | > 10000 | 5.63 |
| COc1cc(OC)c(F)c(N(Cc2ncc[nH]2)c2ccc3ncc(-c4cnn(CCS(C)(=O)=O)c4)nc3n2)c1 [Compound 264] | 0.55 | 1.41 | 9.33 | 8.09 | > 10000 | 5.58 | > 10000 | 7.18 |
